Measured values: paper PMC11173382, “In Vitro Investigations into the Potential Drug Interactions of Pseudoginsenoside DQ Mediated by Cytochrome P450 and Human Drug Transporters” (Molecules, 2024)

Molecular target: T1, hOATP1B1 (Homo sapiens, UniProt Q9Y6L6)
T1 sequence (Q9Y6L6 1-691): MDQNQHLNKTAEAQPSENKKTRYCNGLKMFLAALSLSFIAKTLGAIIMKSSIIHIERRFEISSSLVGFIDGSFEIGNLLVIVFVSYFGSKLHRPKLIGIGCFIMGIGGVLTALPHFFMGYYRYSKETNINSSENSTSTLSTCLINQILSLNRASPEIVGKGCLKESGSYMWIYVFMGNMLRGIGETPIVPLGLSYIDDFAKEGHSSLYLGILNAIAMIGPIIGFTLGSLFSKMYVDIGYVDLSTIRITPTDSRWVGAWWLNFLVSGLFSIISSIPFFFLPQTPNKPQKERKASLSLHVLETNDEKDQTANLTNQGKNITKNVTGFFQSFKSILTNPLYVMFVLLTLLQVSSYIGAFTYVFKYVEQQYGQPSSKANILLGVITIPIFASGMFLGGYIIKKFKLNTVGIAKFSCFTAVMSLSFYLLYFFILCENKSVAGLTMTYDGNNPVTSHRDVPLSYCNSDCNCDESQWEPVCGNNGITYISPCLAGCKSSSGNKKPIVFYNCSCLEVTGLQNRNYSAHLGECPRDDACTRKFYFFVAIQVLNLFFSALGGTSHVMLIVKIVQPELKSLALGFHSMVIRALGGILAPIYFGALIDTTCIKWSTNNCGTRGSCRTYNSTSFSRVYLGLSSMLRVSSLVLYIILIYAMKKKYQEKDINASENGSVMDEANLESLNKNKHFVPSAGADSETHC
Assay: Substrates uptake assay, HEK293A-OATP1B1 cells (3H-ES)
Format: in vitro ADME
Conditions: for Transport activity of OATP1B1 (main text: percentage inhibition): negative control = 100%
Excerpt: Drug transporters mediate the cellular uptake and efflux of their substrates. Therefore, cell lines overexpressing a drug transporter can be utilized to investigate inhibitors of the transporter by assessing changes in substrate uptake. For each drug transporter, we selected a well-characterized inhibitor as the positive control. Radiolabeled substrates were used to indicate the decrease in transport efficiency when the drug transporters were inhibited by PDQ or the control inhibitors.
The concentrations of the control drugs and the substrates were stated in the assay details. Working solutions of the control inhibitors, the radiolabeled substrates, and each dose of PDQ were prepared at 200 times (200×) more concentrated solutions with DMSO for further dilution.
Transporter-overexpressed cell lines. Human organic anion transporter-overexpressed cell lines MDCKII-OAT1 and S2-OAT3, human organic anion transport polypeptide-overexpressed cell lines HEK293A-OATP1B1 and HEK293A-OATP1B3, human organic cation transporter 2-overexpressed cell line S2-OCT2, and human multi-drug resistance protein MDR1 (or P-gp)-overexpressed cell line MDCKII-MDR1 were gifts from Japan Fuji Biomedical Co., Ltd. (Fuji, Shizuoka Prefecture, Japan). Breast cancer resistance protein-overexpressed vesicles (sf9-BCRP vesicle) were purchased from GenoMembrane Co., Ltd. (Yokohama, Kanagawa, Japan).
Substrates uptake assay. In this assay, we studied the inhibition of PDQ against transporters OAT1, OAT3, OCT2, OATP1B1 and OATP1B3 with MDCKII-OAT1, S2-OAT3, S2-OCT2, HEK293A-OATP1B1and HEK293A-OATP1B3 cells, respectively. The radiolabeled substrates for OAT1, OAT3, OATP1B1, OATP1B3 and OCT2 were […], respectively (Table 5). Probenecid ([…]) was the positive control inhibitor of OAT1 and OAT3, while rifampicin ([…]) served as the control drug of OATP1B1 and OATP1B3. For OCT2, we used […] cimetidine to compare with the inhibitory effect of PDQ. Two times (2×) more concentrated working solutions of the drugs and the substrate were prepared with Dulbecco’s phosphate-buffered saline (DPBS, Gibco, Grand Island, NY, USA.). Then, an equal volume of 2× drug solution and 2× radiolabeled substrate solution were mixed as the working mix. All reagents were pre-warmed to 37 °C.
The cells were digested with 0.05% trypsin/EDTA. The density of the single-cell suspension was adjusted to 2.0 × 10^5 cells/mL for S2 cells and to 1.5 × 10^5 cells/mL for MDCK II and HEK293A cells. The cell suspension was then added to the reservoirs of the 24-well plate for culture until full confluency. The medium in the wells was removed, and the wells were washed with DPBS. Then, the plate was incubated for 10 min with pre-warmed DPBS in the wells. After removing DPBS, […] of working mix was added to each well to initiate the substrate uptake process. The reaction time was 5 min for S2-OCT2 cells, while the other four types of cells were incubated with the reaction mix for 2 min. Cold DPBS was used to terminate the substrate transportation. To each well, […] NaOH ([…]) was added to lyse the cells. Then, […] cell lysate was transferred to the counting vials, and 3 mL scintillation cocktail (Aquasol-2, PerkinElmer, Waltham, MA, USA) was added. […] Each sample was replicated three times (N = 3).
In = [100 × (U − U0)/(Uc − U0)]%(3)
The results were expressed as mean ± standard deviation (SD) and analyzed with GraphPad Prism 8.0 software (CA, USA). The IC50 of PDQ was curve-fitted with the FORECAST function. Statistical significance was calculated using a two-tailed test, and a p value < 0.05 was considered as significant.

## CC(C)(O)[C@@H]1CC[C@@](C)([C@H]2CC[C@]3(C)[C@@H]2[C@H](O)C[C@@H]2[C@@]4(C)CC[C@H](O)C(C)(C)[C@@H]4CC[C@]23C)O1 [PDQ, (20S,24S)-dammar-20,24-epoxy-3β, 12β, 25-triol]
Inhibitor 0.1 μM
  DPM (3H-ES uptake by OATP1B1): 15255.0±875.8 DPM
  Transport activity of OATP1B1 (main text: percentage inhibition): 100.9±5.8%
Inhibitor 0.3 μM
  DPM (3H-ES uptake by OATP1B1): 16354.0±875.5 DPM
  Transport activity of OATP1B1 (main text: percentage inhibition): 108.1±5.8%
Inhibitor 1 μM
  DPM (3H-ES uptake by OATP1B1): 14584.0±689.5 DPM
  Transport activity of OATP1B1 (main text: percentage inhibition): 96.4±4.6%
Inhibitor 3 μM
  DPM (3H-ES uptake by OATP1B1): 13110.3±561.2 DPM
  Transport activity of OATP1B1 (main text: percentage inhibition): 86.7±3.7%
Inhibitor 10 μM
  DPM (3H-ES uptake by OATP1B1): 8070.3±754.4 DPM
  Transport activity of OATP1B1 (main text: percentage inhibition): 53.4±5.0%
Inhibitor 30 μM
  DPM (3H-ES uptake by OATP1B1): 5983.3±318.4 DPM
